Where two headings read alike, the source gives them in different places.
Columns and labels:
Bradykinin B1 = target: T1, Bradykinin B1 (Homo sapiens, UniProt P46663); type: binding; details: 10 µM
T1 construct: Human IMR-90 cells; host or cells: IMR-90 cells

Opiate κ(OP2, KOP) = Opiate κ(OP2, KOP) (Homo sapiens, UniProt P41145); type: binding; details: 10 µM
Sigma σ1 = Sigma σ1 (Homo sapiens, UniProt Q99720); type: binding; details: 10 µM
Thyroid Hormone = Thyroid Hormone (Rattus norvegicus, UniProt P18113); type: binding; details: 10 µM
[1] = target: T2, Transporter, Norepinephrine (NET) (Homo sapiens, UniProt P23975); type: binding; details: 10 µM
T2 construct: host or cells: MDCK

[2] = pre-treatment of bacteria without pretreatment of the mice

Sequence of Sigma σ1 (Q99720 whole entry): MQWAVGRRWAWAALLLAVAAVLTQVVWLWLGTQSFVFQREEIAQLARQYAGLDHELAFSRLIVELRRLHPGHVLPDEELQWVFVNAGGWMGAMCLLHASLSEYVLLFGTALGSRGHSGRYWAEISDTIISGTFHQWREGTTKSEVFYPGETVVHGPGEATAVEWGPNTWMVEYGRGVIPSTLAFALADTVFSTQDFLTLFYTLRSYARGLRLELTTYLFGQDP
T2 sequence (P23975 whole entry): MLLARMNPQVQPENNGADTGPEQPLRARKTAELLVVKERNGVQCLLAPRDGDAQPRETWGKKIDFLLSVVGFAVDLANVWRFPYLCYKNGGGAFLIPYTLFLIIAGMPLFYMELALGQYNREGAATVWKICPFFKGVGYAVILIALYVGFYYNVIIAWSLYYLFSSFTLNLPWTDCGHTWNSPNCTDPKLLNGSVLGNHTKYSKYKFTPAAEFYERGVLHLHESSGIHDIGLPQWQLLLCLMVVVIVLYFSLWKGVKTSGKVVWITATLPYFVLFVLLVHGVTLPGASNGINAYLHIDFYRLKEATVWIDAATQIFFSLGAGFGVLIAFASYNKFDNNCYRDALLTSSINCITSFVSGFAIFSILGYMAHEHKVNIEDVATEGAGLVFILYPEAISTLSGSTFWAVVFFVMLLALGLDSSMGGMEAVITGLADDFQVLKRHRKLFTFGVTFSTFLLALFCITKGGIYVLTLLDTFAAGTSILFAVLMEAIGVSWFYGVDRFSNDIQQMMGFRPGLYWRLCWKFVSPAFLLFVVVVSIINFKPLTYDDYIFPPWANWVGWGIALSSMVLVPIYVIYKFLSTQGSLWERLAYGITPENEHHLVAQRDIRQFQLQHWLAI
Sequence of Opiate κ(OP2, KOP) (P41145 whole entry): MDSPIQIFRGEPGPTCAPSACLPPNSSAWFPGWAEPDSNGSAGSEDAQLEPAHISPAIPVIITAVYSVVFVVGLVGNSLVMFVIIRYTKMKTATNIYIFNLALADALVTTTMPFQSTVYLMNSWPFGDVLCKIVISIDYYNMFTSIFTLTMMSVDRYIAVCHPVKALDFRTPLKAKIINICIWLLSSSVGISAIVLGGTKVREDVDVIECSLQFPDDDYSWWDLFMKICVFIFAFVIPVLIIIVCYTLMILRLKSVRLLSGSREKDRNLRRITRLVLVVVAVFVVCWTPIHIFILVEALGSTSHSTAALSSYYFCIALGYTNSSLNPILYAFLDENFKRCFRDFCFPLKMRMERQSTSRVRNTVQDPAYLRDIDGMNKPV
Sequence of Thyroid Hormone (P18113 whole entry): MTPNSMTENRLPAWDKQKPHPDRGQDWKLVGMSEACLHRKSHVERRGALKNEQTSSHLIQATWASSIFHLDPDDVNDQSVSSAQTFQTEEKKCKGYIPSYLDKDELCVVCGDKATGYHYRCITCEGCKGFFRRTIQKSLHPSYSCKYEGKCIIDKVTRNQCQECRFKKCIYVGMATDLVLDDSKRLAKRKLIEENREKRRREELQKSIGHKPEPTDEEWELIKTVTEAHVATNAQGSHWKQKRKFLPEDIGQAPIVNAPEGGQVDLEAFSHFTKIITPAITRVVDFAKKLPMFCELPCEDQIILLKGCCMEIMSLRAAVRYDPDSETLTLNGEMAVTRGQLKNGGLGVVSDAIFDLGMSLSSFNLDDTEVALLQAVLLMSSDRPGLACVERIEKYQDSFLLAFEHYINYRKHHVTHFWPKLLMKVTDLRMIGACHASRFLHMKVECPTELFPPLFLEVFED
T1 sequence (P46663 whole entry): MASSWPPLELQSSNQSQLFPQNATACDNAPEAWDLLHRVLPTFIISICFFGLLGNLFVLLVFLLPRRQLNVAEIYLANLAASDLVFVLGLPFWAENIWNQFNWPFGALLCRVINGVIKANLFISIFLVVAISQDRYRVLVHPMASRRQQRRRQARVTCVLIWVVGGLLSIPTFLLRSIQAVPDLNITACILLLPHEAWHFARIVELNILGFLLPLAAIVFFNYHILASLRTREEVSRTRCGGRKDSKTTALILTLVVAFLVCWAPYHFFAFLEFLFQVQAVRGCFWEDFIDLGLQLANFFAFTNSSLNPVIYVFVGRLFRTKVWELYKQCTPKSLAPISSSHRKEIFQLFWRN

CCOc1ccc(-c2cc(NC(=O)c3c(F)cccc3F)c(C(=O)O)s2)cc1 [DU011]
% Inh. (Bradykinin B1): 12%
% Inh. (Opiate κ(OP2, KOP)): 10%
% Inh. (Sigma σ1): 9%
% Inh. (Thyroid Hormone): 20%
% Inh. [1]: 58%
body weight (E. coli UTI89; [2]): ongoing weight loss among surviving animals
survival (E. coli UTI89; [2]): 50%
body weight (E. coli UTI89; pretreatment of the bacteria and mice): recovery of pre-infection weights
survival (E. coli UTI89; pretreatment of the bacteria and mice, 48 hrs, 10^8 CFU UTI89 i.p.): 100%
tolerability in mice (E. coli UTI89; subcutaneous 100 µL of 1 mg/ml twice daily): without evident side effects
body weight (E. coli UTI89; subcutaneous DU011 and untreated UTI89): stabilization of weights at the end of the experiment
survival (E. coli UTI89; subcutaneous DU011 and untreated UTI89, 48 hrs): 80%

From paper PMC4077706, “Lifting the Mask: Identification of New Small Molecule Inhibitors of Uropathogenic Escherichia coli Group 2 Capsule Biogenesis” (PLoS ONE, 2014)
